According to article PMC11027041 (RSC Advances, 2024):

Assays:
HDAC2 = HDAC2 (Homo sapiens, UniProt Q92769); assay: In vitro HDAC enzyme assay; assay type: biochemical
HDAC3 = HDAC3 (Homo sapiens, UniProt O15379); assay: In vitro HDAC enzyme assay; assay type: biochemical
HDAC4 = HDAC4 (Homo sapiens, UniProt P56524); assay: In vitro HDAC enzyme assay; assay type: biochemical
HDAC6 = HDAC6 (Homo sapiens, UniProt Q9UBN7); assay: In vitro HDAC enzyme assay; assay type: biochemical
HDAC7 = HDAC7 (Homo sapiens, UniProt Q8WUI4); assay: In vitro HDAC enzyme assay; assay type: biochemical
Sequence of HDAC7 (Q8WUI4 whole entry): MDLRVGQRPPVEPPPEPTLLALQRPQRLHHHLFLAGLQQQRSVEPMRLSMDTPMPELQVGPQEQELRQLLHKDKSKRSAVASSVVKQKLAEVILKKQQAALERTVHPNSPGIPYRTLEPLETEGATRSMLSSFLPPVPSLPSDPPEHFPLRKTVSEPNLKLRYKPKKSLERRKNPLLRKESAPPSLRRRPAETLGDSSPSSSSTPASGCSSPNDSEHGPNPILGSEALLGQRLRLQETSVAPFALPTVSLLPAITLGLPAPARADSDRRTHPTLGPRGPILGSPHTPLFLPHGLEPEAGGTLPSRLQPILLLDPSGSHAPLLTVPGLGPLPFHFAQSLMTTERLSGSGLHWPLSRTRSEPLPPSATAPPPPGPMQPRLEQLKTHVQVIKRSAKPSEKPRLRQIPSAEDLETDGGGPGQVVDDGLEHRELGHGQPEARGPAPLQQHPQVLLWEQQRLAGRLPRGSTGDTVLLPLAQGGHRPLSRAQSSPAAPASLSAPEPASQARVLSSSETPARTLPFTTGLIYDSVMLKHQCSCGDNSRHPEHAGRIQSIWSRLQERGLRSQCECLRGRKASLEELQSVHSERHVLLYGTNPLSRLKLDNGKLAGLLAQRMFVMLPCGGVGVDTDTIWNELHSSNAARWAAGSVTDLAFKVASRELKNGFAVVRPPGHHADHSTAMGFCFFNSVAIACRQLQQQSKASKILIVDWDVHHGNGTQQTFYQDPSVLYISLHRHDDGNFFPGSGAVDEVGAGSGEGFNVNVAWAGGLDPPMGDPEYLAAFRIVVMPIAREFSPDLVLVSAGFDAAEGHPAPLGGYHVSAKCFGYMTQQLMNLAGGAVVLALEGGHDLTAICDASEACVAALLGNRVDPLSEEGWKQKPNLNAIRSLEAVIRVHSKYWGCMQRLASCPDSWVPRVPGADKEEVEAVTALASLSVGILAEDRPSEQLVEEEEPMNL

HDAC9 = HDAC9 (Homo sapiens, UniProt Q9UKV0); assay: In vitro HDAC enzyme assay; assay type: biochemical
Sequence of HDAC9 (Q9UKV0 whole entry): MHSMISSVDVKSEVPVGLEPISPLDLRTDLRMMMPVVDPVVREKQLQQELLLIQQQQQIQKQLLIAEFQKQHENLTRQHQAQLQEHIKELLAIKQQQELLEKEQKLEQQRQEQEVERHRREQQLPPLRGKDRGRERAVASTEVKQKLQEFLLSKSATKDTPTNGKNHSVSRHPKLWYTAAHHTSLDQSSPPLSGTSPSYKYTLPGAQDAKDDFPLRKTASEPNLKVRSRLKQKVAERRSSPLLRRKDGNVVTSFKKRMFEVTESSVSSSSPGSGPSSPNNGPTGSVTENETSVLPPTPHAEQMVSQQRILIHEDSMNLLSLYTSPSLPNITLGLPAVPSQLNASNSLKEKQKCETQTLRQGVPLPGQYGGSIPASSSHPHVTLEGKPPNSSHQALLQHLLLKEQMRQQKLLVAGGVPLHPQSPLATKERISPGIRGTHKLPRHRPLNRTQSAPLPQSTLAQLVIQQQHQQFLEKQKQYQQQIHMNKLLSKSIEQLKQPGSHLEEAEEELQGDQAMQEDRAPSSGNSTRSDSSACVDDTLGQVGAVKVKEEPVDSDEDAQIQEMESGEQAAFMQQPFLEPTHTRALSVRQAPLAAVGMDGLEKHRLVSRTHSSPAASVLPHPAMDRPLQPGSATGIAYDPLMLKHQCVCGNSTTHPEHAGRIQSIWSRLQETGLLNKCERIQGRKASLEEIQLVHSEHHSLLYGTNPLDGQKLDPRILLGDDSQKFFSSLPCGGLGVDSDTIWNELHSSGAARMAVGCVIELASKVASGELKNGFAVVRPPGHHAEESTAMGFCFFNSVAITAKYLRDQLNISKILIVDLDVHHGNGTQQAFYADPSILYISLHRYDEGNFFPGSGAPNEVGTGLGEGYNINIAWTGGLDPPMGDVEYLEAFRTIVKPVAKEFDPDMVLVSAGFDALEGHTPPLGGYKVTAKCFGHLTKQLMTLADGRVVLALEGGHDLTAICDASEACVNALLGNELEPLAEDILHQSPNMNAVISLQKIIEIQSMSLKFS

HDAC11 = HDAC11 (Homo sapiens, UniProt Q96DB2); assay: In vitro HDAC enzyme assay; assay type: biochemical
Sequence of HDAC11 (Q96DB2 whole entry): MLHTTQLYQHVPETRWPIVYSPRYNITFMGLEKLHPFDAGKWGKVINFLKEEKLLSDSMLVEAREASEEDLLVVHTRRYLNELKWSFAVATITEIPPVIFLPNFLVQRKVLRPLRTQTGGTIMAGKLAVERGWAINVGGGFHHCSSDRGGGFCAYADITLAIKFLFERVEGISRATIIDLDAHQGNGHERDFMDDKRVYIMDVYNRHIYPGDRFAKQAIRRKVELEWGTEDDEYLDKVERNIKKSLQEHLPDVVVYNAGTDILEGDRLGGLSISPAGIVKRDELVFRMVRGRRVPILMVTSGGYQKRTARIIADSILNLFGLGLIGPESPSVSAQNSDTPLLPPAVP

[1] = system: colon cancer cell line HCT-116; assay: Cell viability assay; assay type: cell-based; settings: Homo sapiens, HCT-116, 72 h, read-out: Antiproliferative IC50 HCT116
CCRF-CEM = assay: NCI-60 antiproliferative screening; assay type: cell-based; settings: Homo sapiens, read-out: percent inhibition
K-562 = assay: NCI-60 antiproliferative screening; assay type: cell-based; settings: Homo sapiens, K562, read-out: percent inhibition
RPMI-8226 = assay: NCI-60 antiproliferative screening; assay type: cell-based; settings: Homo sapiens, RPMI-8226, read-out: percent inhibition
SR = assay: NCI-60 antiproliferative screening; assay type: cell-based; settings: Homo sapiens, read-out: percent inhibition
A549/ATCC = assay: NCI-60 antiproliferative screening; assay type: cell-based; settings: Homo sapiens, A549, read-out: percent inhibition
HOP-62 = assay: NCI-60 antiproliferative screening; assay type: cell-based; settings: Homo sapiens, HOP-62, read-out: percent inhibition
NCI-H226 = assay: NCI-60 antiproliferative screening; assay type: cell-based; settings: Homo sapiens, NCI-H226, read-out: percent inhibition
NCI-H23 = assay: NCI-60 antiproliferative screening; assay type: cell-based; settings: Homo sapiens, NCI-H23, read-out: percent inhibition
NCI-H522 = assay: NCI-60 antiproliferative screening; assay type: cell-based; settings: Homo sapiens, NCI-H522, read-out: percent inhibition
HCT-15 = assay: NCI-60 antiproliferative screening; assay type: cell-based; settings: Homo sapiens, HCT-15, read-out: percent inhibition
SF-268 = assay: NCI-60 antiproliferative screening; assay type: cell-based; settings: Homo sapiens, SF-268, read-out: percent inhibition
SF-539 = assay: NCI-60 antiproliferative screening; assay type: cell-based; settings: Homo sapiens, SF-539, read-out: percent inhibition
LOX IMVI = assay: NCI-60 antiproliferative screening; assay type: cell-based; settings: Homo sapiens, read-out: percent inhibition
MALME-3M = assay: NCI-60 antiproliferative screening; assay type: cell-based; settings: Homo sapiens, read-out: percent inhibition
M14 = assay: NCI-60 antiproliferative screening; assay type: cell-based; settings: Homo sapiens, M14, read-out: percent inhibition
MDA-MB-435 = assay: NCI-60 antiproliferative screening; assay type: cell-based; settings: Homo sapiens, MDA-MB-435, read-out: percent inhibition
SK-MEL-5 = assay: NCI-60 antiproliferative screening; assay type: cell-based; settings: Homo sapiens, SK-MEL-5, read-out: percent inhibition
UACC-257 = assay: NCI-60 antiproliferative screening; assay type: cell-based; settings: Homo sapiens, UACC-257, read-out: percent inhibition
OVCAR-3 = assay: NCI-60 antiproliferative screening; assay type: cell-based; settings: Homo sapiens, OVCAR-3, read-out: percent inhibition
786-0 = assay: NCI-60 antiproliferative screening; assay type: cell-based; settings: Homo sapiens, 786-0, read-out: percent inhibition
CAKI-1 = assay: NCI-60 antiproliferative screening; assay type: cell-based; settings: Homo sapiens, CAKI-1, read-out: percent inhibition
SN12C = assay: NCI-60 antiproliferative screening; assay type: cell-based; settings: Homo sapiens, read-out: percent inhibition
UO-31 = assay: NCI-60 antiproliferative screening; assay type: cell-based; settings: Homo sapiens, UO-31, read-out: percent inhibition
MDA-MB-231/ATCC = assay: NCI-60 antiproliferative screening; assay type: cell-based; settings: Homo sapiens, MDA-MB-231, read-out: percent inhibition
[2] = system: fifty-nine cancer cell lines; assay: NCI-60 antiproliferative screening, panel summary; assay type: cell-based; settings: read-out: percent inhibition of 55 cell lines

Sequence of HDAC4 (P56524 whole entry): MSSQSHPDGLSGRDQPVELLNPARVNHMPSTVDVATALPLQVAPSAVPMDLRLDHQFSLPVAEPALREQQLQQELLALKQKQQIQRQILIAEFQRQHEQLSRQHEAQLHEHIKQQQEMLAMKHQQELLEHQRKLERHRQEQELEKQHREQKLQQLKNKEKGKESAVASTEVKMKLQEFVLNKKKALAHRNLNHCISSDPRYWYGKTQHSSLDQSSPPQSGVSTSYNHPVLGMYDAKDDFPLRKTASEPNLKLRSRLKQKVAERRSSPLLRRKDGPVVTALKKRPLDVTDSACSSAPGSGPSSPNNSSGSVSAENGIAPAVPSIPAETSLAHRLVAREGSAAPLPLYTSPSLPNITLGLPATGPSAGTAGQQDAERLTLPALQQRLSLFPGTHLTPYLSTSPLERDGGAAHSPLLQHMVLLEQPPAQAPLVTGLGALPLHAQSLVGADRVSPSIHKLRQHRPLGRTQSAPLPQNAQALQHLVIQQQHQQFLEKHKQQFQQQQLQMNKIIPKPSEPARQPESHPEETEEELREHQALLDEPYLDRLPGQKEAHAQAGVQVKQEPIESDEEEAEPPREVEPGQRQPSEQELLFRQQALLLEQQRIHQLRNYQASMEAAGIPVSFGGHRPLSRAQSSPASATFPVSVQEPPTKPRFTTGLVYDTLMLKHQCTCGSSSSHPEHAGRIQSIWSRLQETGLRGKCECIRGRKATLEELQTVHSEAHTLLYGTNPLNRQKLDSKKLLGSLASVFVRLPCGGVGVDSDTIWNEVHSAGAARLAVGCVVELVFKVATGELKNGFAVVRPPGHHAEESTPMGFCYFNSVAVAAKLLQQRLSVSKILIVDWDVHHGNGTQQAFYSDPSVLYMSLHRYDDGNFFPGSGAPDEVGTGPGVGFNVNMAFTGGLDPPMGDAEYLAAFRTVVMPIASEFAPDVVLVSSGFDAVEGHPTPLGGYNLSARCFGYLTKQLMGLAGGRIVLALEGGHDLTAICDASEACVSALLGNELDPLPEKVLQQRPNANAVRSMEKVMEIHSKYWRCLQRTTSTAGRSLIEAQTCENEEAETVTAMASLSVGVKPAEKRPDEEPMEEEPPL
Sequence of HDAC3 (O15379 whole entry): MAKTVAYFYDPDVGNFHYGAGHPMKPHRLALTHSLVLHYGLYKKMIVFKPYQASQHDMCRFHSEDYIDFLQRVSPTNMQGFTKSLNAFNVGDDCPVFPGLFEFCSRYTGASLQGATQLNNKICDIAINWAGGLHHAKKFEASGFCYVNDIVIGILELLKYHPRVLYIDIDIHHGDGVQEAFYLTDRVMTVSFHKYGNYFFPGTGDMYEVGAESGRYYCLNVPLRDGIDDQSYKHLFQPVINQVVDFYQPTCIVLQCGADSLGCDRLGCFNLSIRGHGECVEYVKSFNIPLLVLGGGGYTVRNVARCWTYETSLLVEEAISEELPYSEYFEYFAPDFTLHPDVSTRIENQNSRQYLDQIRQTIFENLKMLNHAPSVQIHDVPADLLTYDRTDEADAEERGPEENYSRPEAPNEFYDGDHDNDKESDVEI
Sequence of HDAC3 (Q9Y618 395-489 partner limits assumed): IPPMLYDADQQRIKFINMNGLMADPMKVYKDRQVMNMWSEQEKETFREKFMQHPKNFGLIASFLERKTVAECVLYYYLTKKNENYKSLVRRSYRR
Sequence of HDAC2 (Q92769 whole entry): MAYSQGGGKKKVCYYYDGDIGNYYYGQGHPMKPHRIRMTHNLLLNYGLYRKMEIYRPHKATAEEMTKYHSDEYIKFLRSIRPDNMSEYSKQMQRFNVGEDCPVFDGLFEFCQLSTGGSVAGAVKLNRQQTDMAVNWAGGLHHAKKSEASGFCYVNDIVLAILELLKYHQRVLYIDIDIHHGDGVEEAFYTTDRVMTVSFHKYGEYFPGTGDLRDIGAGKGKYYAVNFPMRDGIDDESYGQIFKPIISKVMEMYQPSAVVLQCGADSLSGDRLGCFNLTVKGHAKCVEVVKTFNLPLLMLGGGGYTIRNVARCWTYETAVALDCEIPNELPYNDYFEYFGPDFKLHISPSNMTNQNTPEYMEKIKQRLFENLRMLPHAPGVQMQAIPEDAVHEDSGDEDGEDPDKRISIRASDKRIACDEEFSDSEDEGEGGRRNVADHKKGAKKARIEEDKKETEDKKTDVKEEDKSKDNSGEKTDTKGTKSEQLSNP

Question: What does the source list for COc1ccc(CN2[C@@H](C(=O)NCCCCCCC(=O)NO)Cc3c([nH]c4ccccc34)[C@@H]2C2CC2)cc1 [Compound 13d, (1S,3R)-1-Cyclopropyl-N-(7-(hydroxyamino)-7-oxoheptyl)-2-(4-methoxybenzyl)-2,3,4,9-tetrahydro-1H-pyrido[3,4-b]indole-3-carboxamide]?
Answer: IC50 (HDAC2): 23.5 ± 1.03 nM; IC50 (HDAC3): 32.1 ± 1.44 nM; IC50 (HDAC4): > 50000 nM; activity for HDAC4 (in words) (HDAC4): no activity; IC50 (HDAC6): 4.5 ± 0.21 nM; IC50 (HDAC7): > 50000 nM; activity for HDAC7 (in words) (HDAC7): no activity; IC50 (HDAC9): > 50000 nM; activity for HDAC9 (in words) (HDAC9): no activity; IC50 (HDAC11): 1800 ± 106 nM; inhibition of HDAC11 (in words) (HDAC11): weak inhibition; IC50 [1]: 1540 ± 30 nM; inhibition at 10 µM (CCRF-CEM): 80.3%; inhibition at 10 µM (K-562): 92.5%; inhibition at 10 µM (RPMI-8226): 84.3%; inhibition at 10 µM (SR): 84%; inhibition at 10 µM (A549/ATCC): 82.7%; inhibition at 10 µM (HOP-62): 86%; inhibition at 10 µM (NCI-H226): 71.9%; inhibition at 10 µM (NCI-H23): 100%; inhibition at 10 µM (NCI-H522): 100%; inhibition at 10 µM (HCT-15): 91.2%; inhibition at 10 µM (SF-268): 85.5%; inhibition at 10 µM (SF-539): 97.1%; inhibition at 10 µM (LOX IMVI): 100%; inhibition at 10 µM (MALME-3M): 98.5%; inhibition at 10 µM (M14): 82.4%; inhibition at 10 µM (MDA-MB-435): 100%; inhibition at 10 µM (SK-MEL-5): 100%; inhibition at 10 µM (UACC-257): 90.1%; inhibition at 10 µM (OVCAR-3): 96.8%; inhibition at 10 µM (786-0): 82.7%; inhibition at 10 µM (CAKI-1): 96%; inhibition at 10 µM (SN12C): 92.2%; inhibition at 10 µM (UO-31): 92.3%; inhibition at 10 µM (MDA-MB-231/ATCC): 100%; inhibition at 10 µM [2]: > 80%
